# Results published in US10730892B2, “Homoallylamines as formaldehyde-responsive triggers” (The Regents of the University of California, priority 2015, dated 2020).
# “And” between values parts separate entries of the source, which are not always exact repeats. Equal entries are not always repeated. Where two headings read alike, the source gives them in different places.
# Columns and labels:
# [1] = for fold increase in fluorescence intensity: 3 h
# Experimental: All experiments were performed at 37° C. for 3 h. Time points on graphs a-b are recorded every 15 min. The time points for graphs c-d represent every 30 min.
# All buffers used for pH titrations were prepared in deionized water and brought to the appropriate pH with aqueous HCl or NaOH. The buffers used were 50 mM glycine (pH range 2.00-3.50), 50 mM NaOAc (pH range 4.00-5.60), 50 mM MES (pH range 5.60-6.80), 50 mM HEPES (pH range 6.80-8.20), 50 mM Tris (pH range 8.20-9.50) and 50 mM glycine (pH range 9.50-10.40). A 10 mM stock solution of formaldehyde for in vitro titration experiments was prepared by heating a suspension of paraformaldehyde (>88% w/w, 17.6 mg, 0.50 mmol, TCI, lot # NXR2B) in phosphate buffered saline (PBS) buffered to pH 7.4 (50 mL) at 88° C. for 1 hr. The solution was cooled to room temperature and filtered through a 0.22 μm syringe filter (Millex).
# Nuclear magnetic resonance (NMR) spectra were recorded on Varian 400 or 500 MHz spectrometers at 25° C. Chemical shifts are reported in ppm (δ) and are referenced to residual protic peaks. The following abbreviations are used to describe coupling constants: singlet (s), doublet (d), triplet (t), quartet (q), doublet doublet (dd), doublet triplet (dt), doublet quartet (dq), doublet doublet triplet (ddt), multiplet (m), and broad singlet (bs). IR spectra were recorded with a PerkinElmer Spectrum Two infrared (IR) spectrometer. High-resolution mass spectra were acquired with a Waters Q-TOF Ultima ESI mass spectrometer and a Waters Synapt G2-Si ESI/LC-MS mass spectrometer. UV-visible spectra were recorded on a Cary 60 spectrometer. Fluorescence spectra were acquired on a QuantaMaster-400 scanning spectrofluorometer with micro fluorescence quartz cuvettes (Science Outlet). Flow cytometry was performed on a BD Biosciences LSR II (San Jose, Calif., USA), and the data were analyzed as described using FACSDiva software.
# (§1) In addition to its ability to crosslink biomolecules, FA is cytotoxic through the induction of oxidative stress (Zararsiz et al., Cell Biochem. Fund. 2007, 25:413).
# [2] = Experimental: Time points on graph are 0, 30, 60, 90, 120, 150, and 180 min. […] Bars represent normalized fold-changes in response to treatment with each analyte listed at 1 mM for 3 hrs.
# as §1
# [3] = tested on: HEK293TN cells
# Experimental: FIG. 9 depicts live-cell imaging of HEK293TN cells. […] Cells were irradiated with the 633 nm HeNe laser set at 3% power with a pinhole size of 1 airy unit. The emission was collected between 645 and 800 nm. Scale bar represents 20 μm. Pseudo-coloring represents intensity distribution from highest intensity indicated by white to the lowest intensity designated by black.
# FIG. 10 depicts the quantification of observed fluorescence intensity by confocal imaging in HEK293TN cells after incubation with 1 mM, 2.5 mM or 5 mM FA for 1 (light grey bars), 2 (dark grey bars) and 3 hrs (black bars). A DMEM vehicle was added to control cells which was normalized to 1 (white bars). […] For each condition, a minimum of 5 images were averaged (n>5). Errors represent standard deviation.
# HEK293TN cells were obtained from Prof. Paul Hergenrother (UIUC, Chemistry) and cultured in phenol-red free Dulbecco's modified eagle medium (DMEM, Corning) supplemented with 10% fetal bovine serum (FBS, Sigma Aldrich), and 1% penicillin/streptomycin (Corning). Neuroscreen-1 cells were obtained from Prof. Kai Zhang (UIUC, Biochemistry) and cultured in Ham's F-12K medium (Sigma Aldrich) supplemented with 15% horse serum (Hyclone), 2.5% fetal bovine serum (FBS, Sigma Aldrich), and 1% penicillin/streptomycin (Corning). Cells were incubated at 37° C. and 5% CO2. One day before imaging, cells were passed and plated on 8-well chambered coverglasses (Lab-Tek) at a density of 40,000 cells per mL (or 20,000 cells per well). Cells would reach 70-80% confluency before imaging. […] Samples of HEK293TN and NS1 cells for flow cytometry were prepared by passaging and seeding each well of a 6-well cluster culture dish (Cyto-One) with 300,000 cells one day before experiments. […] Stained cells were aspirated and serum-free DMEM added. Subsequently, a 10× concentrated FA solution was added to give a final concentration of 1.0 mM. 2.5 mM and 5 mM. After incubation cells with FA, the media was removed and replaced with serum-free DMEM. Finally, cells were trypsinized, pelleted via centrifugation, resuspended in phosphate-buffered saline (PBS) for flow cytometric analysis.
# Prior to imaging, cells were allowed to recover in FA-free buffer for 30 min. […] Because FA is a powerful fixative, cell viability assays were performed to determine the cytotoxicity of FA under experimental conditions. A dye exclusion protocol was employed, utilizing trypan blue to selectively stain and distinguish dead cells from those that were viable. […] To further verify that the cell populations under investigation were indeed alive, DAPI, a cell permeable nuclear and chromosome counterstain, was employed to identify intact nuclei (FIG. 16).
smiles,measurement,setting,value
C=CCC(NCc1ccc([N+](=O)[O-])cc1)c1cn(C)c2cc(C)c(C3=C4C=CC(=O)C=C4[Si](C)(C)c4c3cc3c5c4CCCN5CCC3)cc12 (stereo not drawn) [FP1],fold increase in fluorescence intensity,"[1]; 1 μM FP1, 0.1 mM FA, PBS pH 7.4, 37° C.",3.9 fold
same,fold fluorescence increase,"[1]; 1 μM FP1, 0.25 mM FA, PBS pH 7.4, 37° C., 3 hrs",ca. 7.0 fold
same,fold increase in fluorescence intensity,"[1]; 1 μM FP1, 0.5 mM FA, PBS pH 7.4, 37° C.",8.5 fold
same,fold increase in fluorescence intensity,"[1]; 1 μM FP1, 1 mM FA, PBS pH 7.4, 37° C.",12.8 fold and 11.6 fold
same,lower limit of detection of FP1,"[1]; FA, after 3 hrs incubation at 37° C.",0.01 mM
same,fold fluorescence increase,"[2]; 1 μM FP1, 1 mM acetaldehyde, 3 hrs",1.9 fold
same,cross-reactivity with aldehyde containing species,"[2]; 1 μM FP1, 1 mM of the various analytes",only minimal cross-reactivity
same,change in fluorescence,[2]; 1 mM hydrogen peroxide,no significant change in fluorescence
same,chemical stability in the presence of intracellular reductants,"[2]; cysteine, glutathione, hydrogen sulfide, 1 mM, 3 hrs",no aberrant reactivity
same,fold increase in fluorescence intensity (confocal),"[3]; 2 μM FP1, 1 mM FA, 1 hr",1.2 fold
same,fold increase in fluorescence intensity (confocal),"[3]; 2 μM FP1, 1 mM FA, 2 hrs",1.3 fold
same,fold increase in fluorescence intensity (confocal),"[3]; 2 μM FP1, 1 mM FA, 3 hrs",1.6 fold
same,fold increase in fluorescence intensity (confocal),"[3]; 2 μM FP1, 2.5 mM FA, 1 hr",1.2 fold
same,fold increase in fluorescence intensity (confocal),"[3]; 2 μM FP1, 2.5 mM FA, 2 hrs",1.7 fold
same,fold increase in fluorescence intensity (confocal),"[3]; 2 μM FP1, 2.5 mM FA, 3 hrs",2.2 fold
same,fold increase in fluorescence intensity (confocal),"[3]; 2 μM FP1, 5 mM FA, 1 hr",2.1 fold
same,fold increase in fluorescence intensity (confocal),"[3]; 2 μM FP1, 5 mM FA, 2 hrs",2.6 fold
same,fold increase in fluorescence intensity (confocal),"[3]; 2 μM FP1, 5 mM FA, 3 hrs",~3 fold and 2.9 fold and 2.8 fold
